In the NIST ThermoML archive (doi:10.1016/j.jct.2013.11.036):
± gives the expanded uncertainty stated by the source.

Assay: mn = molality of the nth substance listed, in mol/kg
Settings: Liquid

CCCO [propan-1-ol] + O
Settings	mass density [kg/m3]
292.05 K, 101 kPa, Pycnometric method, m1 = 0.869	991.42 ± 1
293.45 K, 101 kPa, Pycnometric method, m1 = 2.936	980.4 ± 1
294.85 K, 101 kPa, Pycnometric method, m1 = 56.35	851.23 ± 0.88
295.15 K, 101 kPa, Pycnometric method, m1 = 0.869	990.4 ± 1
298.15 K, 101 kPa, Pycnometric method, m1 = 0.869	989.5 ± 1
298.15 K, 101 kPa, Pycnometric method, m1 = 2.936	978.54 ± 1
298.15 K, 5000 kPa, Constant-volume piezometry, m1 = 0.869	990.5 ± 1.2
298.15 K, 5000 kPa, Constant-volume piezometry, m1 = 2.465	980.7 ± 1.2
298.15 K, 10000 kPa, Constant-volume piezometry, m1 = 0.869	992.6 ± 1.2
298.15 K, 10000 kPa, Constant-volume piezometry, m1 = 2.465	982.7 ± 1.2
298.15 K, 20000 kPa, Constant-volume piezometry, m1 = 0.869	996.7 ± 1.2
298.15 K, 20000 kPa, Constant-volume piezometry, m1 = 2.465	986.6 ± 1.2
298.15 K, 30000 kPa, Constant-volume piezometry, m1 = 0.869	1000.6 ± 1.2
298.15 K, 30000 kPa, Constant-volume piezometry, m1 = 2.465	990.3 ± 1.2
298.15 K, 40000 kPa, Constant-volume piezometry, m1 = 0.869	1004.4 ± 1.3
298.15 K, 40000 kPa, Constant-volume piezometry, m1 = 2.465	993.8 ± 1.2
302.13 K, 2844 kPa, Constant-volume piezometry, m1 = 14.38	910.6 ± 1.1
302.13 K, 7747 kPa, Constant-volume piezometry, m1 = 14.38	913.1 ± 1.1
302.13 K, 13631 kPa, Constant-volume piezometry, m1 = 14.38	915.8 ± 1.1
302.8 K, 101 kPa, Pycnometric method, m1 = 2.531	974.74 ± 1
302.8 K, 101 kPa, Pycnometric method, m1 = 7.407	941.25 ± 0.97
302.8 K, 101 kPa, Pycnometric method, m1 = 14.38	908.75 ± 0.94
303.15 K, 5000 kPa, Constant-volume piezometry, m1 = 0.869	988.8 ± 1.2
303.15 K, 5000 kPa, Constant-volume piezometry, m1 = 2.465	978.4 ± 1.2
303.15 K, 10000 kPa, Constant-volume piezometry, m1 = 0.869	990.9 ± 1.2
303.15 K, 10000 kPa, Constant-volume piezometry, m1 = 2.465	980.5 ± 1.2
303.15 K, 20000 kPa, Constant-volume piezometry, m1 = 0.869	995 ± 1.2
303.15 K, 20000 kPa, Constant-volume piezometry, m1 = 2.465	984.4 ± 1.2
303.15 K, 30000 kPa, Constant-volume piezometry, m1 = 0.869	998.9 ± 1.2
303.15 K, 30000 kPa, Constant-volume piezometry, m1 = 2.465	988 ± 1.2
303.15 K, 40000 kPa, Constant-volume piezometry, m1 = 0.869	1002.7 ± 1.3
303.15 K, 40000 kPa, Constant-volume piezometry, m1 = 2.465	991.6 ± 1.2
303.2 K, 3334 kPa, Constant-volume piezometry, m1 = 2.531	975.9 ± 1.2
303.2 K, 7708 kPa, Constant-volume piezometry, m1 = 2.531	977.7 ± 1.2
304.65 K, 101 kPa, Pycnometric method, m1 = 2.936	975.69 ± 1
306 K, 101 kPa, Pycnometric method, m1 = 56.35	842.18 ± 0.87
307.99 K, 2942 kPa, Constant-volume piezometry, m1 = 56.35	872.9 ± 1.1
307.99 K, 14220 kPa, Constant-volume piezometry, m1 = 56.35	880.4 ± 1.1
308.55 K, 101 kPa, Pycnometric method, m1 = 0.869	986.52 ± 1
312.07 K, 2844 kPa, Constant-volume piezometry, m1 = 7.407	936.5 ± 1.1
312.07 K, 6865 kPa, Constant-volume piezometry, m1 = 7.407	938.7 ± 1.1
312.07 K, 12160 kPa, Constant-volume piezometry, m1 = 7.407	941.1 ± 1.1
312.65 K, 101 kPa, Pycnometric method, m1 = 2.531	969.82 ± 1
312.65 K, 101 kPa, Pycnometric method, m1 = 7.407	934.48 ± 0.97
312.65 K, 101 kPa, Pycnometric method, m1 = 14.38	901.37 ± 0.93
313.75 K, 101 kPa, Pycnometric method, m1 = 2.936	971.27 ± 1
320.75 K, 101 kPa, Pycnometric method, m1 = 56.35	829.47 ± 0.87
322.35 K, 101 kPa, Pycnometric method, m1 = 2.936	966.49 ± 1
323.15 K, 5000 kPa, Constant-volume piezometry, m1 = 0.869	980.8 ± 1.2
323.15 K, 5000 kPa, Constant-volume piezometry, m1 = 2.465	968.2 ± 1.2
323.15 K, 10000 kPa, Constant-volume piezometry, m1 = 0.869	982.9 ± 1.2
323.15 K, 10000 kPa, Constant-volume piezometry, m1 = 2.465	970.3 ± 1.2
323.15 K, 20000 kPa, Constant-volume piezometry, m1 = 0.869	986.9 ± 1.2
323.15 K, 20000 kPa, Constant-volume piezometry, m1 = 2.465	974.3 ± 1.2
323.15 K, 30000 kPa, Constant-volume piezometry, m1 = 0.869	990.8 ± 1.2
323.15 K, 30000 kPa, Constant-volume piezometry, m1 = 2.465	978 ± 1.2
323.15 K, 40000 kPa, Constant-volume piezometry, m1 = 0.869	994.5 ± 1.3
323.15 K, 40000 kPa, Constant-volume piezometry, m1 = 2.465	981.6 ± 1.2
326.05 K, 101 kPa, Pycnometric method, m1 = 2.531	962.17 ± 1
326.05 K, 101 kPa, Pycnometric method, m1 = 7.407	924.78 ± 0.97
326.05 K, 101 kPa, Pycnometric method, m1 = 14.38	890.78 ± 0.93
331.05 K, 101 kPa, Pycnometric method, m1 = 56.35	820.42 ± 0.86
340.85 K, 101 kPa, Pycnometric method, m1 = 2.531	952.6 ± 1
340.85 K, 101 kPa, Pycnometric method, m1 = 7.407	913.42 ± 0.96
340.85 K, 101 kPa, Pycnometric method, m1 = 14.38	878.68 ± 0.93
342.49 K, 2353 kPa, Constant-volume piezometry, m1 = 14.38	877.9 ± 1.1
342.49 K, 6159 kPa, Constant-volume piezometry, m1 = 14.38	880.3 ± 1.1
342.49 K, 10199 kPa, Constant-volume piezometry, m1 = 14.38	882.7 ± 1.1
342.49 K, 14455 kPa, Constant-volume piezometry, m1 = 14.38	885.4 ± 1.1
343.48 K, 2942 kPa, Constant-volume piezometry, m1 = 7.407	913.7 ± 1.1
343.48 K, 6767 kPa, Constant-volume piezometry, m1 = 7.407	915.8 ± 1.1
343.48 K, 12690 kPa, Constant-volume piezometry, m1 = 7.407	919 ± 1.1
343.94 K, 2353 kPa, Constant-volume piezometry, m1 = 2.531	950.6 ± 1.1
343.94 K, 6374 kPa, Constant-volume piezometry, m1 = 2.531	952.5 ± 1.2
343.94 K, 10787 kPa, Constant-volume piezometry, m1 = 2.531	954.3 ± 1.2
347.63 K, 3668 kPa, Constant-volume piezometry, m1 = 56.35	838 ± 1
347.63 K, 10120 kPa, Constant-volume piezometry, m1 = 56.35	843.1 ± 1
348.15 K, 5000 kPa, Constant-volume piezometry, m1 = 0.869	967.9 ± 1.2
348.15 K, 5000 kPa, Constant-volume piezometry, m1 = 2.465	952.7 ± 1.2
348.15 K, 10000 kPa, Constant-volume piezometry, m1 = 0.869	970 ± 1.2
348.15 K, 10000 kPa, Constant-volume piezometry, m1 = 2.465	954.9 ± 1.2
348.15 K, 20000 kPa, Constant-volume piezometry, m1 = 0.869	974.1 ± 1.2
348.15 K, 20000 kPa, Constant-volume piezometry, m1 = 2.465	959.1 ± 1.2
348.15 K, 30000 kPa, Constant-volume piezometry, m1 = 0.869	978 ± 1.2
348.15 K, 30000 kPa, Constant-volume piezometry, m1 = 2.465	963.1 ± 1.2
348.15 K, 40000 kPa, Constant-volume piezometry, m1 = 0.869	981.8 ± 1.2
348.15 K, 40000 kPa, Constant-volume piezometry, m1 = 2.465	966.8 ± 1.2
349.85 K, 101 kPa, Pycnometric method, m1 = 2.531	946.25 ± 1
349.85 K, 101 kPa, Pycnometric method, m1 = 7.407	906.29 ± 0.96
349.85 K, 101 kPa, Pycnometric method, m1 = 14.38	870.71 ± 0.93
352.05 K, 101 kPa, Pycnometric method, m1 = 56.35	801.03 ± 0.86
373.15 K, 5000 kPa, Constant-volume piezometry, m1 = 0.869	951.6 ± 1.2
373.15 K, 5000 kPa, Constant-volume piezometry, m1 = 2.465	934.2 ± 1.1
373.15 K, 10000 kPa, Constant-volume piezometry, m1 = 0.869	953.9 ± 1.2
373.15 K, 10000 kPa, Constant-volume piezometry, m1 = 2.465	937 ± 1.1
373.15 K, 20000 kPa, Constant-volume piezometry, m1 = 0.869	958.3 ± 1.2
373.15 K, 20000 kPa, Constant-volume piezometry, m1 = 2.465	941.3 ± 1.2
373.15 K, 30000 kPa, Constant-volume piezometry, m1 = 0.869	962.4 ± 1.2
373.15 K, 30000 kPa, Constant-volume piezometry, m1 = 2.465	945.7 ± 1.2
373.15 K, 40000 kPa, Constant-volume piezometry, m1 = 0.869	966.3 ± 1.2
373.15 K, 40000 kPa, Constant-volume piezometry, m1 = 2.465	949.7 ± 1.2
